In patent US9403776B2, “Aryl- and heteroaryl-substituted tetrahydrobenzazepines and use thereof to block reuptake of norepinephrine, dopamine, and serotonin” (Albany Molecular Research, Inc., priority 2005, dated 2016):
Where a name gives a salt, the structure may show the parent alone.

Q: For `COc1ccc2c(c1)CN(C)CCC2c1ccccc1Cl` (racemic) (as salt: hydrochloride) [Example 10, (+/−)-5-(2-chlorophenyl)-8-methoxy-2-methyl-2,3,4,5-tetrahydro-1H-benzo[c]azepine], which melting point is on record?
A: 129 to 132 °C

Q: Which melting point does the source give for `CN1CCC(c2ccc(Cl)cc2)c2ccc(-c3ccc(N(C)C)nn3)cc2C1` (single isomer, unassigned) (as salt: maleate) [Example 45, {6-[5-(4-chlorophenyl)-2-methyl-2,3,4,5-tetrahydro-1H-benzo[c]azepine-8-yl]-pyridazin-3-yl}-dimethylamine] here?
A: 96 to 98 °C

Q: Which melting point does the source give for `COc1ccc2c(c1)CN(C)CCC2c1ccc(F)cc1` (single isomer, unassigned; (-)) (as salt: hydrochloride) [Example 4 (−), (−)-5-(4-fluorophenyl)-8-methoxy-2-methyl-2,3,4,5-tetrahydro-1H-benzo[c]azepine] here?
A: 246 to 248 °C

Q: With `COc1ccc2c(c1)CN(C(C)C)CCC2c1ccccc1` (racemic) (as salt: maleate) [Example 55, (+/−)-2-isopropyl-8-methoxy-5-phenyl-2,3,4,5-tetrahydro-1H-benzo[c]azepine] as the molecule, how does the melting point read?
A: 172 to 175 °C

Q: Which melting point does the source give for `COc1cccc2c1C(c1ccccc1)CCN(C)C2` (racemic) (as salt: fumarate) [Example 2, (+/−)-6-methoxy-2-methyl-5-phenyl-2,3,4,5-tetrahydro-1H-benzo[c]azepine] here?
A: 154 to 156 °C

Q: With `COc1ccc2c(c1)CN(C)CCC2c1ccccc1` (racemic) (as salt: fumarate) [Example 1, (+/−)-8-methoxy-2-methyl-5-phenyl-2,3,4,5-tetrahydro-1H-benzo[c]azepine] as the molecule, how does the melting point read?
A: 171 to 173 °C

Q: For `CN1CCC(c2ccc(F)cc2)c2ccc(N3CCOCC3)cc2C1` (single isomer, unassigned; (+)) (as salt: maleate) [Example 85, (+)-4-(5-(4-fluorophenyl)-2-methyl-2,3,4,5-tetrahydro-1H-benzo[c]azepin-8-yl)morpholine], which melting point is on record?
A: 87 to 90 °C

Q: For `COc1ccc(C2CCN(C)Cc3cc(OC)ccc32)cc1` (single isomer, unassigned; (-)) (as salt: hydrochloride) [Example 6 (−), (−)-5-(4-methoxyphenyl)-8-methoxy-2-methyl-2,3,4,5-tetrahydro-1H-benzo[c]azepine], which melting point is on record?
A: 193 to 194 °C

Q: Which melting point does the source give for `COc1ccc2c(c1)CN(C)CCC2c1cc(F)c(O)c(F)c1` (stereo not drawn) (as salt: citrate) [Example 62, 2,6-difluoro-4-(8-methoxy-2-methyl-2,3,4,5-tetrahydro-1H-benzo[c]azepin-5-yl)phenol] here?
A: 88 to 90 °C

Q: With `CN1CCC(c2ccccc2)c2ccc(-c3ccc4nccn4c3)cc2C1` (single isomer, unassigned; (+)) (as salt: tartrate) [Example 73, (+)-8-(imidazo[1,2-a]pyridin-6-yl)-2-methyl-5-phenyl-2,3,4,5-tetrahydro-1H-benzo[c]azepine] as the molecule, how does the melting point read?
A: 142 to 144 °C

Q: With `CCN1CCC(c2ccccc2)c2ccc(N3CCOCC3)cc2C1` (single isomer, unassigned; (-)) (as salt: maleate) [Example 57 (−), (−)-4-(2-ethyl-5-phenyl-2,3,4,5-tetrahydro-1H-benzo[c]azepin-8-yl)morpholine] as the molecule, how does the melting point read?
A: 68 to 72 °C

Q: For `Cc1ccc(-c2ccc3c(c2)CN(C)CCC3c2ccc(F)cc2)nn1` (single isomer, unassigned; (+)) (as salt: maleate) [Example 89, (+)-5-(4-fluorophenyl)-2-methyl-8-(6-methylpyridazin-3-yl)-2,3,4,5-tetrahydro-1H-benzo[c]azepine], which melting point is on record?
A: 173 to 176 °C

Q: For `CN1CCC(c2ccccc2)c2ccc(N3CCN(c4ccccn4)CC3)cc2C1` (single isomer, unassigned; (-)) (as salt: tartrate) [Example 68 (−), (−)-2-methyl-5-phenyl-8-(4-(pyridine-2-yl)piperazin-1-yl)-2,3,4,5-tetrahydro-1H-benzo[c]azepine], which melting point is on record?
A: 112 to 115 °C

Q: With `Cc1ccc(-c2ccc3c(c2)CN(C)CCC3c2cccc(F)c2)nn1` (single isomer, unassigned; (-)) (as salt: citrate) [Example 84 (−), (−)-5-(3-fluorophenyl)-2-methyl-8-(6-methylpyridazin-3-yl)-2,3,4,5-tetrahydro-1H-benzo[c]azepine] as the molecule, how does the melting point read?
A: 107 to 110 °C

Q: For `CN1CCC(c2ccccc2)c2ccc(-c3ccc(N(C)C)nn3)cc2C1` (single isomer, unassigned; (+)) (as salt: maleate) [Example 26, (+)-dimethyl-[6-(2-methyl-5-phenyl-2,3,4,5-tetrahydro-1H-benzo[c]azepine-8-yl)-pyridazin-3-yl]-amine], which melting point is on record?
A: 99 to 102 °C

Q: With `COc1ccc2c(c1)CN(C)CCC2c1ccc(O)c(F)c1` (stereo not drawn) (as salt: maleate) [Example 63, 2-fluoro-4-(8-methoxy-2-methyl-2,3,4,5-tetrahydro-1H-benzo[c]azepin-5-yl)phenol] as the molecule, how does the melting point read?
A: 50 to 54 °C

Q: With `CCN1CCC(c2ccccc2)c2ccc(N3CCOCC3)cc2C1` (single isomer, unassigned; (+)) (as salt: maleate) [Example 57 (+), (+)-4-(2-ethyl-5-phenyl-2,3,4,5-tetrahydro-1H-benzo[c]azepin-8-yl)morpholine] as the molecule, how does the melting point read?
A: 64 to 66 °C

Q: With `COc1ccc2c(c1)CN(C)CCC2c1ccc(F)cc1` (racemic) (as salt: hydrochloride) [Example 3, (+/−)-5-(4-fluorophenyl)-8-methoxy-2-methyl-2,3,4,5-tetrahydro-1H-benzo[c]azepine] as the molecule, how does the melting point read?
A: 149 to 150 °C

Q: Which melting point does the source give for `CN1CCC(c2ccccc2)c2ccc(C(C)(C)O)cc2C1` (single isomer, unassigned; (+)) (as salt: tartrate) [Example 18, (+)-2-(2-methyl-5-phenyl-2,3,4,5-tetrahydro-1H-benzo[c]azepin-8-yl)propan-2-ol] here?
A: 103 to 105 °C

Q: Which melting point does the source give for `CC(C)N1CCC(c2ccccc2)c2ccc(N3CCOCC3)cc2C1` (single isomer, unassigned; (-)) (as salt: maleate) [Example 58 (−), (−)-4-(2-isopropyl-5-phenyl-2,3,4,5-tetrahydro-1H-benzo[c]azepin-8-yl)morpholine] here?
A: 195 to 197 °C

Q: For `Cc1ccc(-c2ccc3c(c2)CN(C)CCC3c2ccc3sccc3c2)nn1.O=C(O)/C=C\C(=O)O` (single isomer, unassigned; (+)) [Example 106, (+)-5-(benzo[b]thiophen-5-yl)-2-methyl-8-(6-methylpyridazin-3-yl)-2,3,4,5-tetrahydro-1H-benzo[c]azepine, maleate salt], which melting point is on record?
A: 105 to 109 °C

Q: For `CN1CCC(c2ccccc2)c2ccc(N3CCOCC3)cc2C1` (single isomer, unassigned; (+)) (as salt: maleate) [Example 34, (+)-4-(2-methyl-5-phenyl-2,3,4,5-tetrahydro-1H-benzo[c]azepin-8-yl)morpholine], which melting point is on record?
A: 88 to 89 °C

Q: For `COc1ccc2c(c1)CNCCC2c1ccccc1` (racemic) (as salt: maleate) [Example 53, (+/−)-8-methoxy-5-phenyl-2,3,4,5-tetrahydro-1H-benzo[c]azepine], which melting point is on record?
A: 154 to 156 °C

Q: For `CN1CCC(c2ccccc2)c2ccc(F)cc2C1.O=C(O)/C=C\C(=O)O` (stereo not drawn), which melting point is on record?
A: 153 to 155 °C

Q: Which melting point does the source give for `Cc1ccc(-c2ccc3c(c2)CN(C)CCC3c2cccc(F)c2)nn1` (single isomer, unassigned; (+)) (as salt: citrate) [Example 84 (+), (+)-5-(3-fluorophenyl)-2-methyl-8-(6-methylpyridazin-3-yl)-2,3,4,5-tetrahydro-1H-benzo[c]azepine] here?
A: 90 to 95 °C

Q: Which melting point does the source give for `OCCN1CCC(c2ccccc2)c2ccc(N3CCOCC3)cc2C1` (single isomer, unassigned; (+)) (as salt: tartrate) [Example 59, (+)-2-(8-morpholino-5-phenyl-4,5-dihydro-1H-benzo[c]azepin-2(3H)-yl)ethanol] here?
A: 93 to 96 °C

Q: For `CN1CCC(c2ccccc2)c2ccc(-c3cccnn3)cc2C1` (single isomer, unassigned; (+)) (as salt: hydrochloride) [Example 25, (+)-2-methyl-5-phenyl-8-(pyridazin-3-yl)-2,3,4,5-tetrahydro-1H-benzo[c]azepine], which melting point is on record?
A: 154 to 156 °C

Q: With `Cc1ccc(-c2ccc3c(c2)CN(C)CCC3c2ccc(C#N)c(F)c2)nn1` (single isomer, unassigned; (-)) (as salt: tartrate) [Example 92 (−), (−)-2-fluoro-4-(2-methyl-8-(6-methylpyridazin-3-yl)-2,3,4,5-tetrahydro-1H-benzo[c]azepin-5-yl)benzonitrile] as the molecule, how does the melting point read?
A: 122 to 127 °C

Q: For `CN1CCC(c2ccc(Cl)cc2)c2ccc(-c3ncccn3)cc2C1` (single isomer, unassigned; (+)) (as salt: maleate) [Example 44, (+)-5-(4-chlorophenyl)-2-methyl-8-pyrimidin-2-yl-2,3,4,5-tetrahydro-1H-benzo[c]azepine], which melting point is on record?
A: 84 to 85 °C

Q: With `CN1CCC(c2ccc3ccccc3c2)c2ccc(N3CCOCC3)cc2C1` (single isomer, unassigned; (+)) (as salt: maleate) [Example 51, (+)-2-methyl-8-morpholin-4-yl-5-naphthalen-2-yl-2,3,4,5-tetrahydro-1H-benzo[c]azepine] as the molecule, how does the melting point read?
A: 110 to 112 °C

Q: For `COc1ccc2c(c1)CN(C)CCC2c1ccc2sccc2c1` (single isomer, unassigned; (-)) (as salt: maleate) [Example 52 (−), (−)-5-benzo[b]thiophen-5-yl-8-methoxy-2-methyl-2,3,4,5-tetrahydro-1H-benzo[c]azepine], which melting point is on record?
A: 92 to 95 °C

Q: For `CN1CCC(c2ccccc2)c2ccc(N3CCN(c4ncccn4)CC3)cc2C1` (single isomer, unassigned; (+)) (as salt: tartrate) [Example 69, (+)-2-methyl-5-phenyl-8-(4-(pyrimidin-2-yl)piperazin-1-yl)-2,3,4,5-tetrahydro-1H-benzo[c]azepine], which melting point is on record?
A: 119 to 121 °C

Q: For `Cc1nc(-c2ccc3c(c2)CN(C)CCC3c2ccccc2)no1` (single isomer, unassigned; (+)) (as salt: tartrate) [Example 33, (+)-5-methyl-3-(2-methyl-5-phenyl-2,3,4,5-tetrahydro-1H-benzo[c]azepin-8-yl)-1,2,4-oxadiazole], which melting point is on record?
A: 102 to 104 °C
